Assay results: patent US7851637B2, “Compounds and methods for inhibiting the interaction of BCL proteins with binding partners” (Infinity Pharmaceuticals, Inc., priority 2004, dated 2010)
Where two headings read alike, the source gives them in different places.

What was measured:
[1] = biological target: Bcl-2 (Homo sapiens, UniProt P10415); assay: Bcl-2 binding affinity analysis (fluorescence polarization binding assay)
Method in brief: (§1)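 Sensitive, quantitative cell-free test: compound incubated with protein, then polarization of emitted fluorescence recorded to gauge affinity.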

[2] = biological target: Bcl-xL (Homo sapiens, UniProt Q07817); assay: Bcl-xL binding affinity analysis (fluorescence polarization binding assay); design: scale not given here
Sequence of Bcl-xL (Q07817 whole entry): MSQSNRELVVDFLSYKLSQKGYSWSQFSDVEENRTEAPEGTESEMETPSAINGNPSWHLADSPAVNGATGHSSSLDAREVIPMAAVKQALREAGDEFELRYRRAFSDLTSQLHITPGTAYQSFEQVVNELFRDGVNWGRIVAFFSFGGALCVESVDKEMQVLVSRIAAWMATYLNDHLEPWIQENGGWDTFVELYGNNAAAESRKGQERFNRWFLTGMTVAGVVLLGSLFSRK
Method in brief: as §1

[3] = tested on: RL Human Follicular Lymphoma Cell Line; assay: Alamar blue cytotoxicity assay in RL cells; format: cell-based; details: 72 h incubation, read-out: Bcl RL Alamar Blue IC50
Experimental: (§2) When RL-cells are exposed to isoxazolidine compounds of the present invention, the inhibitors show a dose-dependent cell-killing in the Alamar blue cytoxicity assay with IC50 values of from about 100 μM to about 1 μM (See Examples). When Panc1 cells are exposed to the isoxazolidine compounds of the present invention in combination with camptothecin, the inhibitors show a synergistic dose-dependent cell killing in the propidium iodide exclusion cell survival assay with IC50 values of from about 100 μM to about 1 μM (See Examples).
• 1) Using 96 well plates, compounds were serially diluted in DMSO from 9 mM to 4 uM • 2) Assay plates were prepared by diluting samples 310 fold into 150 ul of medium containing 30,000 cells/well resulting in a final DMSO concentration of 0.3% and a concentration range from 29 uM to 0.013 uM for each compound. • 3) Plates were incubated at 37 C and 5% CO2 for 72 h • 4) After 72 h, Alamar blue reagent was added to each well and plates read according to manufacturer's instructions
In vitro cytotoxicity data for RL cells is presented below for various compounds of the invention.

[4] = tested on: Human Pancreatic Cancer Cell Line Panc1; assay: Cell death assay (propidium iodide/Hoechst) in Panc1 cells with or without camptothecin; format: cell-based; details: 72 hours, % cell death by propidium iodide/Hoechst
Experimental: as §2
• 1) Compounds were serially diluted in DMSO from a 9 mM stock to a final concentration of 0.004 mM in a 96 well plate. • 2) Assay plates were prepared by diluting compounds 310 fold into 150 ul of medium containing 10,000 cells/well, with or without 3 uM Camptothecin, resulting in a final DMSO concentration of 0.3% and a compound concentration range from 29 uM to […] for each compound. • 3) Assay plates were incubated at 37 C, 5% CO2 for 72 hours. • 4) After 72 hours, propidium iodide and Hoechst dye were added to each well according to manufacturer's instruction. • 5) Plates were imaged on a fluorescence microscope at wavelengths Ex560/Em650 (Propidium iodide) and Ex360/Em465 (Hoechst) • 6) MetaMorph imaging software was used to determine % cell death by dividing the number of propidium iodide stained cells (dead cells) by the number of Hoechst stained cells (all cells), multipled by 100, in each field.
Panc1 invitro cellular data is presented below for various compounds of the invention.

[5] = Homo sapiens, PANC-1, without camptothecin, read-out: Panc1 − Cpt IC50
[6] = with 3 uM Camptothecin, read-out: Panc1 + Cpt IC50

Sequence of Bcl-2 (P10415 whole entry): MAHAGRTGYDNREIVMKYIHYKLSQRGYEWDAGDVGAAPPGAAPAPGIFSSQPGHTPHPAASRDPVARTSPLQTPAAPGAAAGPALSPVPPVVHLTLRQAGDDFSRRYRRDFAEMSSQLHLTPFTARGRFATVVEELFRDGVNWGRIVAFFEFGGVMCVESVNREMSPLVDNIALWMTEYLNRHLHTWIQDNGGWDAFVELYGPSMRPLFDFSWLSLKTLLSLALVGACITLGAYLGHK

SMILES	Ki [1] [nM]	Bcl-XL binding affinity Ki [2]	IC50 ([3]; Homo sapiens) [nM]	IC50 [3] [nM]	IC50 [4, 5] [nM]	IC50 [4, 6] [nM]	IC50 ([4]; without camptothecin, read-out: Panc1 − Cpt IC50) [nM]
C[C@@H]1[C@@H](NC(=O)[C@@H]2C([C@H](C)O)[C@H](CO)ON2Cc2cccc(CN(Cc3ccccc3)[C@@H]3CCN(C)C3)c2)C[C@H]2C[C@@H]1C2(C)C (some centres unmarked) [Compound 432]	< 800	♯	< 2000	–	–	–	–
CC(O)C1C(CO)ON(Cc2cccc(NC(=O)NC(CCc3ccccc3)CN(C)C)c2)C1C(=O)NC1CC2CC(C1C)C2(C)C (centres unmarked) [Compound 573]	< 800	♯	–	2000 to 5000	–	–	–
CC(O)C1C(CO)ON(Cc2cccc(CN3c4ccccc4CC3CN(C)C)c2)C1C(=O)NC1CC2CC(C1C)C2(C)C (centres unmarked) [Compound 465]	< 800	♯	> 5000	–	–	–	–
C[C@@H]1[C@@H](NC(=O)[C@@H]2[C@H]([C@H](C)O)[C@H](CO)ON2Cc2cccc(-c3cccc(C(=O)NCCN(C)C)c3)c2OCC2CC2)C[C@H]2C[C@@H]1C2(C)C [Compound 497]	< 800	♯	–	–	> 2500	> 2500	–
COC(=O)CCNC(=O)c1cccc(-c2cccc(CN3O[C@@H](CO)[C@@H]([C@H](C)O)[C@H]3C(=O)N[C@H]3C[C@H]4C[C@@H]([C@@H]3C)C4(C)C)c2)c1 [Compound 149]	< 800	♯	–	–	> 2500	1800 to 2500	–
CCOc1c(CN2O[C@@H](CO)[C@@H]([C@H](C)O)[C@H]2C(=O)N[C@H]2C[C@H]3C[C@@H]([C@@H]2C)C3(C)C)cccc1-c1cccc(C(=O)NCCN(C)C)c1 [Compound 495]	< 800	♯	–	–	> 2500	> 2500	–
CC(O)C1C(CO)ON(Cc2cccc(CNC(CC3CCCCC3)CN(C)C)c2)C1C(=O)NC1CC2CC(C1C)C2(C)C (centres unmarked) [Compound 451]	< 800	♯	–	–	–	–	> 2500
COc1c(CN2O[C@@H](CO)[C@@H]([C@H](C)O)[C@H]2C(=O)N[C@H]2C[C@H]3C[C@@H]([C@@H]2C)C3(C)C)cccc1-c1cccc(C(=O)N[C@H](CC2CCCCC2)CN(C)C)c1 [Compound 489]	< 800	♯	–	–	> 2500	1800 to 2500	–
CC(O)C1C(CO)ON(Cc2cccc(CNC(CN(C)C)C3CCCCC3)c2)C1C(=O)NC1CC2CC(C1C)C2(C)C (centres unmarked) [Compound 443]	< 800	♯	–	–	> 2500	> 2500	–
CC(C)CC(CN(C)C)N(Cc1cccc(CN2OC(CO)C(C(C)O)C2C(=O)NC2CC3CC(C2C)C3(C)C)c1)CC1CCCCC1 (centres unmarked) [Compound 303]	< 800	♯	–	–	> 2500	> 2500	–
CCC(C)C(CN(C)C)N(Cc1cccc(CN2OC(CO)C(C(C)O)C2C(=O)NC2CC3CC(C2C)C3(C)C)c1)Cc1ccccc1Br (centres unmarked) [Compound 416]	< 800	♯	–	–	> 2500	> 2500	–
CC(O)C1C(CO)ON(Cc2cccc(C(=O)NC(Cc3ccccc3)CN(C)C)c2)C1C(=O)NC1CC2CC(C1C)C2(C)C (centres unmarked) [Compound 508]	< 800	♯	–	–	> 2500	> 2500	–
COc1ccc(COc2c(CN3O[C@@H](CO)[C@@H]([C@H](C)O)[C@H]3C(=O)N[C@H]3C[C@H]4C[C@@H]([C@@H]3C)C4(C)C)cccc2-c2ccc(C(=O)N(C)C)cc2)cc1 [Compound 166]	< 800	♯	–	–	> 2500	< 1300	–
COc1c(CN2O[C@@H](CO)[C@@H]([C@H](C)O)[C@H]2C(=O)N[C@H]2C[C@H]3C[C@@H]([C@@H]2C)C3(C)C)cccc1-c1cccc(C(=O)N[C@H](CN(C)C)CC(C)(C)C)c1 [Compound 479]	< 800	♯	–	–	1800 to 2500	1300 to 1800	–
CC(O)C1C(CO)ON(Cc2cccc(CNC(CN(C)C)c3ccccc3)c2)C1C(=O)NC1CC2CC(C1C)C2(C)C (centres unmarked) [Compound 452]	< 800	♯	–	–	> 2500	> 2500	–
CC(O)C1C(CO)ON(Cc2cccc(C(=O)NC(CC3CCCCC3)CN(C)C)c2)C1C(=O)NC1CC2CC(C1C)C2(C)C (centres unmarked) [Compound 501]	< 800	♯	–	–	1800 to 2500	1300 to 1800	–
COC(=O)CCNC(=O)c1cccc(-c2cccc(CN3O[C@@H](CO)[C@@H]([C@H](C)O)[C@H]3C(=O)N[C@H]3C[C@H]4C[C@@H]([C@@H]3C)C4(C)C)c2)c1 [Compound 190]	–	–	2000 to 5000	–	–	–	–
CC(C)C(CN(C)C)NCc1cccc(CN2OC(CO)C(C(C)O)C2C(=O)NC2CC3CC(C2C)C3(C)C)c1 (centres unmarked) [Compound 462]	< 800	♯	–	–	> 2500	> 2500	–

The next lines start with results.

Ki [1] [nM]	Bcl-XL binding affinity Ki [2]	SMILES	IC50 ([3]; Homo sapiens) [nM]	IC50 [3] [nM]	IC50 [4, 5] [nM]	IC50 [4, 6] [nM]	IC50 ([4]; without camptothecin, read-out: Panc1 − Cpt IC50) [nM]
< 800	♯	COc1ccccc1CN(CCN(C)C)Cc1cccc(CN2OC(CO)C(C(C)O)C2C(=O)NC2CC3CC(C2C)C3(C)C)c1 (centres unmarked) [Compound 351]	2000 to 5000	–	–	–	–
< 800	♯	CC(O)C1C(CO)ON(Cc2cccc(CN(CCN(C)C)Cc3ccccc3-c3ccccc3)c2)C1C(=O)NC1CC2CC(C1C)C2(C)C (centres unmarked) [Compound 340]	2000 to 5000	–	–	–	–
< 800	♯	CC(O)C1C(CO)ON(Cc2cccc(CN(CCN3CCCCC3)Cc3ccccc3)c2)C1C(=O)NC1CC2CC(C1C)C2(C)C (centres unmarked) [Compound 433]	–	–	> 2500	> 2500	–
< 800	♯	COc1cccc(CN(Cc2cccc(CN3OC(CO)C(C(C)O)C3C(=O)NC3CC4CC(C3C)C4(C)C)c2)C(CC(C)C)CN(C)C)c1 (centres unmarked) [Compound 319]	–	–	1800 to 2500	1300 to 1800	–
< 800	♯	CC(C)CC(CN(C)C)N(Cc1cccc(O)c1)Cc1cccc(CN2OC(CO)C(C(C)O)C2C(=O)NC2CC3CC(C2C)C3(C)C)c1 (centres unmarked) [Compound 310]	–	–	> 2500	1800 to 2500	–
< 800	♯	COc1ccc(CN(CCN(C)C)Cc2cccc(CN3OC(CO)C(C(C)O)C3C(=O)NC3CC4CC(C3C)C4(C)C)c2)cc1 (centres unmarked) [Compound 387]	–	–	> 2500	> 2500	–
< 800	♯	CC(O)C1C(CO)ON(Cc2cccc(CNC(Cc3ccccc3)CN(C)C)c2)C1C(=O)NC1CC2CC(C1C)C2(C)C (centres unmarked) [Compound 454]	–	–	> 2500	> 2500	–
< 800	♯	CC(O)C1C(CO)ON(Cc2cccc(CN(CCN(C)C)Cc3cccs3)c2)C1C(=O)NC1CC2CC(C1C)C2(C)C (centres unmarked) [Compound 358]	–	–	> 2500	> 2500	–
< 800	♯	CCN1CCCC1CN(Cc1ccccc1)Cc1cccc(CN2OC(CO)C(C(C)O)C2C(=O)NC2CC3CC(C2C)C3(C)C)c1 (centres unmarked) [Compound 426]	–	–	> 2500	> 2500	–
< 800	♯	CC(O)C1C(CO)ON(Cc2cccc(CN(CCN3CCOCC3)Cc3ccccc3)c2)C1C(=O)NC1CC2CC(C1C)C2(C)C (centres unmarked) [Compound 434]	–	–	> 2500	> 2500	–
< 800	♯	C[C@@H]1[C@@H](NC(=O)[C@@H]2C([C@H](C)O)[C@H](CO)ON2Cc2cccc(CN(CCN(C)C)Cc3ccncc3)c2)C[C@H]2C[C@@H]1C2(C)C (some centres unmarked) [Compound 389]	–	–	1800 to 2500	1300 to 1800	–
< 800	♯	CC(O)C1C(CO)ON(Cc2cccc(CN(C)C(Cc3ccccc3)CN(C)C)c2)C1C(=O)NC1CC2CC(C1C)C2(C)C (centres unmarked) [Compound 464]	–	–	> 2500	> 2500	–
< 800	♯	CC(O)C1C(CO)ON(Cc2cccc(CN(CCN(C)C)Cc3ccsc3)c2)C1C(=O)NC1CC2CC(C1C)C2(C)C (centres unmarked) [Compound 347]	–	–	> 2500	> 2500	–
< 800	♯	CC(O)C1C(CO)ON(Cc2cccc(CN(CCN(C)C)Cc3ccc(F)cc3)c2)C1C(=O)NC1CC2CC(C1C)C2(C)C (centres unmarked) [Compound 376]	–	–	1800 to 2500	1300 to 1800	–
